The pEC50 is the EC50 on a negative log10 scale, so that one unit is a factor of ten.

The results in this text go back to PMC12431657, “Discovery and mechanistic insights of dibenzoylmethane as a broad spectrum inhibitor of coronavirus” (PLOS Pathogens, 2025).

Assay type in all cases: cell-based
Assay [1] concerns SARS-CoV-2 variant Delta (B.1.617.2). As to the kind of experiment: microbe, parasite or virus in culture. The conditions noted are these: for pEC50: Severe acute respiratory syndrome coronavirus 2, 24 h, read-out: EC50 B.1.617.2 (293T-AT).
Assay [2] relates to SARS-CoV-2 variant Omicron (BA.5). As to the kind of experiment: microbe, parasite or virus in culture. As to conditions: for pEC50: Severe acute respiratory syndrome coronavirus 2, 24 h, read-out: EC50 BA.5 (293T-AT).
For assay [3] the test system is unchanged.

pEC50: −log10 of the molar value. Where “and” joins values, the source holds several entries; their conditions need not be identical. Equal values may be shown once. A value given as a limit tells only on which side of the number the result lay.

Regarding `CC1=C[C@]23C(=O)[C@@H](C=C(COC(=O)c4ccccc4)[C@@H](O)[C@]2(O)[C@H]1OC(=O)c1ccccc1)[C@H]1[C@@H](C[C@H]3C)C1(C)C` [Ingenol 3,20-dibenzoate, ingenol 3,20-dibenzoate], in assay [1], the “B.1.617.2, HEK293T-AT: inhibition at the concentration (Fig2B)” value (“B.1.617.2, HEK293T-AT: inhibition” for short) amounted to 81.2 and the negative-log EC50 (pEC50) was greater than 7.10. Besides, the pEC50 in assay [2] is greater than 7.10.
For `CCC(=O)O[C@H]1[C@H](O[C@@H]2[C@@H](C)[C@H](O[C@H]3C[C@@](C)(OC)[C@@H](O)[C@H](C)O3)[C@@H](C)C(=O)O[C@H](CC)[C@@](C)(O)[C@H](O)[C@@H](C)C(=O)[C@H](C)C[C@@]2(C)O)O[C@H](C)C[C@@H]1N(C)C` [Erythromycin estolate, erythromycin estolate, reference compound], in assay [1], the “B.1.617.2, HEK293T-AT: inhibition” value was 98.9 and 99.6 and 99.2. The pEC50 in assay [1] and in assay [2] was greater than 7.10 throughout.
Consider `O=C(CC(=O)c1ccccc1)c1ccccc1` [DBM, dibenzoylmethane], for which the “inhibitory effect against SARS-CoV-2 BA.5 in Vero E6 cells” value in assay [3] is “but not in Vero E6 cells”. For the same molecule, the pEC50 in assay [1] was 4.68. In assay [2], the “BA.5, HEK293T-AT: inhibition at the concentration (Fig2B)” value is recorded as 97.4; the “inhibitory effect against SARS-CoV-2 BA.5 in HEK293T-AT cells” value is “demonstrated efficacy”; the pEC50 is 5.18.
Regarding `C/C=C(/C)C(=O)OC(C)(C)[C@@H]1Cc2c(ccc3ccc(=O)oc23)O1` [Columbianadin, columbianadin], in assay [1], the “B.1.617.2, HEK293T-AT: inhibition” value is 99.1 and 99.3; the pEC50 was greater than 7.10. The pEC50 in assay [2] is greater than 7.10.
For the molecule `Cc1c([C@H](C)[C@@H]2NC[C@@H](C)C[C@H]2O)ccc2c1C[C@H]1[C@H]2CC=C2C[C@@H](O)CC[C@@]21C` [Veratramine, veratramine], in assay [1], the “B.1.617.2, HEK293T-AT: inhibition” value is 99.1 and 99.7 and 99.9; the pEC50 is greater than 7.10. Further, in assay [2], the “BA.5, HEK293T-AT: inhibition at the concentration (Fig2B)” value came to 81.3 and the pEC50 is greater than 7.10.
